Assay results reported in patent US9655822B2, “Hydrated lamellar phases or liposomes which contain a fatty monoamine or a cationic polymer which promotes intracellular penetration, and a cosmetic or pharmaceutical composition containing same, as well as a method of screening such a substance” (BASF Beauty Care Solutions France S.A.S., priority 2004, dated 2017).

What was measured:
normal human fibroblasts [1] = assay: Screening of molecules which stimulate the intracellular penetration of PFB-F incorporated in a liposome; format: cell-based
Protocol: These molecules are retained in priority. The preparation of the liposomes with primary fatty monoamines of alkyl chain length of between 3 and 18 carbons and the quantification of the intracellular penetration of the fluorescent label are carried out as described in the preceding Example. […] We have thus studied the intracellular penetration of the PFB-F encapsulated in liposomes in the presence of primary fatty monoamines on the one hand, and with secondary fatty monoamines on the other hand. The preparation of the liposomes with primary or secondary fatty amines and the quantification of the intracellular penetration of the fluorescent markers are carried out as described in Example 8.

normal human fibroblasts [2] = assay: Cell viability in the screening of functionalising molecules; settings: 1% of molecule (25 kDa PEI: 50 μM), 96-well plate
Protocol: 250 μl of liposomal suspension is added onto cultures of normal human fibroblasts extracted from abdominal plasy and cultivated in a 96-well plate. Each concentration is tested on 6 different wells. The cell viability is evaluated by a test with paranitrophenylphosphate which determines the intracellular alkaline phosphatase activity after three rinses with pH 7.4 phosphate buffer. The percentage of living cells is calculated with respect to a control made without the addition of liposome in the culture well (n=6).
55 molecules are firstly tested in triplicate, in comparison with the 50 μM 25 kDa PEI. The intracellular penetration is quantified after 24 hours of incubation on normal human fibroblasts cultivated in 24-well plates as described in Example 2. The cell viability is estimated in a 96-well plate with 200 μl of liposomal suspension.
The intracellular penetration and the cytotoxicity are evaluated as described in Example 2.

[3] = Transcutaneous permeation on human skin; settings: 0.5% vitamin E in liposomes with 2% quaternised soya solution vs free or liposome without quaternised agent; HPLC, 5 to 24 hours
Protocol: The diffusion kinetics were quantified by spectrofluorimetry from 3 to 24 hours. The release was quantified after 24 additional hours. The storage was also evaluated last. The number of samples tested is 5 per condition.
The diffusion kinetics were quantified by high performance liquid chromatography from 5 to 24 hours. The release was quantified after 24 additional hours. The storage was also evaluate last.

[4] = 1% of molecule (25 kDa PEI: 50 μM), 5% soya lecithin, 0.01% PFB-F, 24 hours

Compound: C[N+](C)(CCO)CCCNC(=O)[C@H](O)[C@@H](O)[C@H](O)[C@H](O)CO.[Cl-] [Quaternium 22]
- Stimulation factor (normal human fibroblasts [1]; [4]): 2
- Viability (normal human fibroblasts [2]): 98.9%

Compound: CCCCN [n-Butylamine C4, n-Butylamine]
- Stimulation factor (normal human fibroblasts [1]; [4]): 1.4
- Stimulation factor (normal human fibroblasts [1]; by number of alkyl chains of the amine (chain length), as in Example 8): 1.7
- Stimulation factor (normal human fibroblasts [1]; primary monoamine with a single alkyl fatty chain, by number of carbons, as in Example 8): 1.4

Compound: Quaternium 26
- Stimulation factor (normal human fibroblasts [1]; [4]): 30.9
- Viability (normal human fibroblasts [2]): 59.2%

Compound: Quaternium 70 and PG
- Stimulation factor (normal human fibroblasts [1]; [4]): −0.2
- Viability (normal human fibroblasts [2]): 63.9%

Compound: Stearamidopropyl cetearyl dimonium tosylate and PG
- Stimulation factor (normal human fibroblasts [1]; [4]): 13.1
- Viability (normal human fibroblasts [2]): 93.2%

Compound: vitamin E
- diffusion, release and storage (in words) [3]: significantly stimulates the diffusion, the release and the storage
